Experimental data: publication PMC12481576, “Barbituric Acid Derivatives as Covalent Inhibitors of Leishmania braziliensis Dihydroorotate Dehydrogenase” (Journal of Medicinal Chemistry, 2025)
Read-outs that look alike come from different tables or passages of the source.

What was measured:
[1] = biological target: T1, LbDHODH (Leishmania braziliensis, UniProt E9AI53); experiment: biochemical; conditions: for IC50: LbDHODH; for inhibition at 100 µM: read-out: enzyme inhibition
Procedure: To assess the ability of compounds 2a–2i to inhibit LbDHODH via covalent bond formation with Cys^131, we initially screened them at a concentration of 100 μM under two conditions: with and without a 4-h preincubation with the enzyme.
The experiments were performed in a 96-well microplate reader (SpectraMax Plus 384, Molecular Devices, USA), containing the […] of the buffer 60 mM DCIP, 50 mM Tris pH 8.15, 150 mM KCl, 0.1% Triton X-100, 50 μM DHO and 10 μM of LbDHODH at 165 nM. The reaction was monitored every 3 s at 610 nm over a period of 60 s, in triplicate, for the control and each concentration of the inhibitor. All assays were performed without incubation (0h) and with 4-h preincubation of the inhibitor with LbDHODH, using 5% DMSO (v/v) as control. […]. […] The resulting kobs values were plotted as a function of inhibitor concentration, and the data in the initial linear region was fit to determine the slope, which is kinact/KI. All regressions were performed with GraphPad Prism 9.

[2] = biological target: T1, LbDHODH; experiment: Kinact/KI determination from LbDHODH progress curves (kobs vs inhibitor concentration); type: biochemical
From the text: The Kinact/Ki ratio is a key parameter for evaluating the potency of covalent inhibitors, as it quantitatively measures both their reactivity and affinity for the target enzyme. This parameter integrates two crucial aspects: KI, which reflects the inhibitor’s binding affinity, and Kinact, which describes the rate at which the covalent bond is formed. […] Therefore, this ratio is essential for ranking covalent inhibitors, optimizing their potency, and guiding structure-based drug design.
The experiments were performed in a 96-well microplate reader (SpectraMax Plus 384, Molecular Devices, USA), containing the […] of the buffer 60 mM DCIP, 50 mM Tris pH 8.15, 150 mM KCl, 0.1% Triton X-100, 50 μM DHO and 10 μM of LbDHODH at 165 nM. The reaction was monitored every 3 s at 610 nm over a period of 60 s, in triplicate, for the control and each concentration of the inhibitor. All assays were performed without incubation (0h) and with 4-h preincubation of the inhibitor with LbDHODH, using 5% DMSO (v/v) as control. […] To determine the IC50 values, the activity percentage data were fitted as a function of the concentration logarithm by nonlinear regression analysis (variable hillslope) using Prism 9.0 software (GraphPad Software, USA). […] The resulting kobs values were plotted as a function of inhibitor concentration, and the data in the initial linear region was fit to determine the slope, which is kinact/KI. All regressions were performed with GraphPad Prism 9.

[3] = biological target: T2, HsDHODH (Homo sapiens, UniProt Q02127); experiment: Selectivity assay: HsDHODH single-dose inhibition (DCIP reduction); type: biochemical
T2 construct: made in house
Procedure: […]. This finding highlights the potential of barbituric acid derivatives as selective inhibitors of LbDHODH.
Human DHODH expression and purification were conducted following a protocol previously established in our laboratory. The purification was carried out by affinity chromatography on a Ni-NTA Agarose column (Qiagen[…] Cat. No. 30210). […] The reaction was performed in triplicate, initiated by adding 195 μL of reaction buffer to 5 μL of HsDHODH protein solution for a final concentration of 20 nM enzyme. As a blank, 195 μL of reaction buffer was added to 5 μL of Buffer A. The reaction was monitored at 610 nm every 3 s over 60 s. As a control, 5 μL of enzyme was added to 195 μL of reaction medium without compound. Enzymatic velocity was calculated, and the percentage of relative enzymatic activity was determined relative to the control.

[4] = test system: Leishmania braziliensis promastigotes; experiment: Leishmanicidal activity, promastigote growth (SYBR Green, 72 h); type: cell-based, Leishmania (V.) braziliensis (MHOM/BR/1975/M2904); conditions: Leishmania braziliensis, L. braziliensis promastigotes, max 200 μM
Procedure: The cultures were adjusted to 4 × 10^6 parasites per mL, and 50 μL of each culture was added on a test plate with 384 wells (Corning, #CLS3658), along with the controls and compounds to be tested. Previously diluted compounds in DMSO were added to plates in decreasing concentrations, with a maximum concentration of 200 μM. Parasites were exposed to a final concentration of DMSO in various dilutes (final = 0.5%), and the culture medium was used as the control for the experiment. […] After adding the lysis buffer, the plates were incubated in the dark for 2 h with gentle shaking. The readings were done using a SpectraMax M3 reader (excitation at 485 nm and emission at 535 nm).

[5] = Cell viability / cytotoxicity assay (PrestoBlue, 72 h); type: cell-based; conditions: human; THP-1 cell line, 72 h, max 200 μM; read-out: CC50
Procedure: THP-1 cells (American Type Cell Collection, #TIB-202) were acquired in 2019 and stored frozen in liquid nitrogen. The cells were then maintained in RPMI 1640 (Thermo Fisher Scientific, #S31800–022) at 37 °C in a 5% CO2 atmosphere and routinely tested for Mycoplasma contamination by PCR using the primers 5′-[…] and 5′-[…]. To test the toxicity of compounds, 5000 cells were added to 96-well plates with a final volume of 80 μL centrifuged at 400g for 2 min and incubated with 150 ng/mL of phorbol myristate acetate (Merck, #P8139) for 48 h. The medium was replaced, and after 24 h, the compounds were added and tested at decreasing concentrations starting from 200 μM (10 μL/well). After 72 h of incubation, 10 μL of PrestoBlue Cell Viability Reagent (Thermo Fisher Scientific, #A13262) was added per well. After adding the reagent, the cells were incubated for 2 h at 37 °C in a 5% CO2 atmosphere, and fluorescence readings were performed using the SpectraMax M3 reader (excitation at 560 nm and emission at 590 nm).

[6] = 0 h, pH 8.15, read-out: LbDHODH Activity±SD (%)
[7] = 4 h, pH 8.15, read-out: LbDHODH Activity±SD (%)
[8] = IC50 0 h, without preincubation
[9] = read-out: Single dose (0h) % activity
[10] = read-out: Single dose (4h) % activity

T2 sequence (Q02127 whole entry): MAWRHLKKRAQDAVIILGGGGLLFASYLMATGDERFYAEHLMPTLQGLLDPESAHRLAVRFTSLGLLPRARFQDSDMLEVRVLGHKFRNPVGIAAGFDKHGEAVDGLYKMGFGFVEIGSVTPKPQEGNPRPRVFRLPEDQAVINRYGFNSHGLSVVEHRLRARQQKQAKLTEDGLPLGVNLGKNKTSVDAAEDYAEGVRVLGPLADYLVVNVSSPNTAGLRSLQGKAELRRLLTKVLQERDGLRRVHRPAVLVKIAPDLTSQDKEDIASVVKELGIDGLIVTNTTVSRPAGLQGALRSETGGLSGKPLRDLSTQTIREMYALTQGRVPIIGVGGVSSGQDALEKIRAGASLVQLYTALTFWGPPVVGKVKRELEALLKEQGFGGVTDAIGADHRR
T1 sequence (E9AI53 entry or part of it): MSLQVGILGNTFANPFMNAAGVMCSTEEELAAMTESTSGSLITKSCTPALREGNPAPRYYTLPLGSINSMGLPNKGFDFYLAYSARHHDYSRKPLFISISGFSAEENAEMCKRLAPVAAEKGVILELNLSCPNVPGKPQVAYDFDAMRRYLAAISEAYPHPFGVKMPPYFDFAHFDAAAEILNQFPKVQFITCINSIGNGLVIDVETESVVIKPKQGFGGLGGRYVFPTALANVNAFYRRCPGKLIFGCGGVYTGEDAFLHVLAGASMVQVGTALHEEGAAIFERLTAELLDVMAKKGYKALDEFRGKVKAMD

O=C1NC(=O)C(=Cc2ccccc2)C(=O)N1 [2a, 5-Benzylidenepyrimidine-2,4,6(1H,3H,5H)-trione]
activity at 0.195312 µM [1, 6]: 108 ± 9% | activity at 0.390625 µM [1, 6]: 106 ± 13% | activity at 0.78125 µM [1, 6]: 110 ± 8% | activity at 1.5625 µM [1, 6]: 103 ± 8% | activity at 3.125 µM [1, 6]: 106 ± 8% | activity at 6.25 µM [1, 6]: 88 ± 10% | activity at 12.5 µM [1, 6]: 73 ± 9% | activity at 25 µM [1, 6]: 60 ± 9% | activity at 50 µM [1, 6]: 54 ± 9% | activity at 100 µM [1, 6]: 36 ± 5% | activity at 200 µM [1, 6]: 27 ± 9% | activity at 400 µM [1, 6]: 20 ± 2% | activity at 0.195312 µM [1, 7]: 110 ± 16% | activity at 0.390625 µM [1, 7]: 92 ± 13% | activity at 0.78125 µM [1, 7]: 91 ± 6% | activity at 1.5625 µM [1, 7]: 84 ± 15% | activity at 3.125 µM [1, 7]: 74 ± 10% | activity at 6.25 µM [1, 7]: 54 ± 4% | activity at 12.5 µM [1, 7]: 55 ± 5% | activity at 25 µM [1, 7]: 44 ± 3% | activity at 50 µM [1, 7]: 29 ± 10% | activity at 100 µM [1, 7]: 21 ± 1% | activity at 200 µM [1, 7]: 5 ± 1% | activity at 400 µM [1, 7]: 6 ± 2% | IC50 [1, 8]: 56 ± 5 µM | IC50 ([1]; IC50 4 h, 4-h preincubation): 13 ± 2 µM | activity at 100 µM [1, 9]: 11 ± 9% | activity at 100 µM [1, 10]: 3.5 ± 0.2% | inhibition at 100 µM [1]: 96.5% | Kobs ([2]; inhibitor 0.390625 µM): 0.003884 ± 0.002 s⁻¹ | Kobs ([2]; inhibitor 0.78125 µM): 0.003327 ± 0.002 s⁻¹ | Kobs ([2]; inhibitor 1.5625 µM): 0.003467 ± 0.002 s⁻¹ | Kobs ([2]; inhibitor 3.125 µM): 0.003356 ± 0.002 s⁻¹ | Kobs ([2]; inhibitor 6.25 µM): 0.003415 ± 0.002 s⁻¹ | Kobs ([2]; inhibitor 12.5 µM): 0.003372 ± 0.002 s⁻¹ | Kobs ([2]; inhibitor 25 µM): 0.003515 ± 0.002 s⁻¹ | Kobs ([2]; inhibitor 50 µM): 0.003742 ± 0.001 s⁻¹ | Kobs ([2]; inhibitor 100 µM): 0.004728 ± 0.001 s⁻¹ | Kobs ([2]; inhibitor 200 µM): 0.006479 ± 0.003 s⁻¹ | kinact/KI ([2]; slope of kobs vs inhibitor concentration): 17 M⁻¹ s⁻¹ | activity at 100 µM [3, 9]: 87 ± 10% | activity at 100 µM [3, 10]: 79 ± 8% | EC50 [4]: > 200 µM | CC50 at 72 h [5]: > 200 µM

O=C1NC(=O)C(=Cc2cccc(O)c2)C(=O)N1 [2g, 5-(3-Hydroxybenzylidene)pyrimidine-2,4,6(1H,3H,5H)-trione]
activity at 0.78125 µM [1, 6]: 90 ± 9% | activity at 1.5625 µM [1, 6]: 106 ± 12% | activity at 3.125 µM [1, 6]: 78 ± 13% | activity at 6.25 µM [1, 6]: 106 ± 15% | activity at 12.5 µM [1, 6]: 101 ± 10% | activity at 25 µM [1, 6]: 82 ± 17% | activity at 50 µM [1, 6]: 63 ± 8% | activity at 100 µM [1, 6]: 45 ± 5% | activity at 200 µM [1, 6]: 29 ± 3% | activity at 400 µM [1, 6]: 21 ± 2% | activity at 0.78125 µM [1, 7]: 88 ± 8% | activity at 1.5625 µM [1, 7]: 72 ± 9% | activity at 3.125 µM [1, 7]: 77 ± 13% | activity at 6.25 µM [1, 7]: 75 ± 10% | activity at 12.5 µM [1, 7]: 58 ± 5% | activity at 25 µM [1, 7]: 36 ± 4% | activity at 50 µM [1, 7]: 23 ± 3% | activity at 100 µM [1, 7]: 12.1 ± 2% | activity at 200 µM [1, 7]: 7.1 ± 2% | activity at 400 µM [1, 7]: 5.4 ± 3% | IC50 [1, 8]: 90 ± 10 µM | IC50 ([1]; IC50 4 h, 4-h preincubation): 13 ± 1 µM | activity at 100 µM [1, 9]: 22 ± 4% | activity at 100 µM [1, 10]: 8 ± 2% | inhibition at 100 µM [1]: 90 to 93% | Kobs ([2]; inhibitor 0.390625 µM): 0.003649 ± 0.003 s⁻¹ | Kobs ([2]; inhibitor 0.78125 µM): 0.003674 ± 0.003 s⁻¹ | Kobs ([2]; inhibitor 1.5625 µM): 0.00383 ± 0.002 s⁻¹ | Kobs ([2]; inhibitor 3.125 µM): 0.003621 ± 0.002 s⁻¹ | Kobs ([2]; inhibitor 6.25 µM): 0.003878 ± 0.002 s⁻¹ | Kobs ([2]; inhibitor 12.5 µM): 0.004049 ± 0.002 s⁻¹ | Kobs ([2]; inhibitor 25 µM): 0.004549 ± 0.002 s⁻¹ | Kobs ([2]; inhibitor 50 µM): 0.005211 ± 0.002 s⁻¹ | Kobs ([2]; inhibitor 100 µM): 0.007035 ± 0.001 s⁻¹ | Kobs ([2]; inhibitor 200 µM): 0.01421 ± 0.003 s⁻¹ | Kobs ([2]; inhibitor 400 µM): 0.01927 ± 0.006 s⁻¹ | activity at 100 µM [3, 9]: 101 ± 11% | activity at 100 µM [3, 10]: 96 ± 9% | EC50 [4]: > 200 µM | CC50 at 72 h [5]: 76 ± 12 µM

COc1cc(CC2C(=O)NC(=O)NC2=O)ccc1O [3c, 5-(4-Hydroxy-3-methoxybenzyl)pyrimidine-2,4,6(1H,3H,5H)-trione]
IC50 [1, 8]: > 100 µM | IC50 ([1]; IC50 4 h, 4-h preincubation): > 100 µM | activity at 100 µM [1, 9]: 98 ± 7% | activity at 100 µM [1, 10]: 60 ± 10% | activity at 100 µM [3, 9]: 87 ± 10% | activity at 100 µM [3, 10]: 79 ± 8% | EC50 [4]: > 200 µM | CC50 at 72 h [5]: > 200 µM

O=C1NC(=O)C(Cc2ccc(N3CCOCC3)cc2[N+](=O)[O-])C(=O)N1 [3e, 5-(4-Morpholino-2-nitrobenzyl)pyrimidine-2,4,6(1H,3H,5H)-trione]
IC50 [1, 8]: > 100 µM | IC50 ([1]; IC50 4 h, 4-h preincubation): > 100 µM | activity at 100 µM [1, 9]: 90 ± 10% | activity at 100 µM [1, 10]: 80 ± 20% | activity at 100 µM [3, 9]: 105 ± 12% | activity at 100 µM [3, 10]: 89 ± 9% | EC50 [4]: 23 ± 16 µM | CC50 at 72 h [5]: > 200 µM
